{"source": "patent EP4813381A1", "about": "“PHARMACEUTICAL USE OF GUAIANE SESQUITERPENE DERIVATIVE” (Nanjing University Of Chinese Medicine, priority 2023, dated 2025)", "key": {"lupus nephritis": {"test_system": "lupus nephritis", "experiment": "Lupus nephritis MRL/lpr mice: urinary protein, Scr, BUN, urinary Kim-1 and β-MG", "format": "in vivo", "set-up": "Scr / BUN / Kim-1 / β-MG: unit not given here", "conditions": "oral 30 mg/kg, 8 weeks", "description": "RT Supermix for qPCR, Nanjing Vazyme Biotech Co., Ltd.; Urea Colorimetric Test Kit, Creatinine Colorimetric Test Kit, Nanjing Jiancheng Biotechnology Co., Ltd.; Urinary Kim-1 and β-MG Content ELISA Kits, Abcam. • Experimental animals: MRL/MpJ and MRL/lpr mice, female, 10 weeks old, purchased from GemPharmatech LLC. Production license number: SCXK(Su)2023-0009. […] They were acclimated for 7 days before use in experiments. […] Oral administration was performed continuously for 8 weeks. […] Aspirate the serum, aliquot it, and store at -70 °C for future use. After blood collection, euthanize mice by cervical dislocation. Open the abdominal cavity, remove kidneys, and dissect out perirenal fat and capsules. […] Store remaining tissues at -70 °C for future use. Serum Creatinine (Scr) and Blood Urea Nitrogen (BUN) Assay: […] Samples were added sequentially strictly according to the kit instructions, incubated at 37 °C, and measured for absorbance values using an enzyme-linked immunosorbent assay (ELISA) reader. The concentration levels of each indicator were calculated based on the standard curve."}, "Hepa1-6 cells [1]": {"test_system": "Hepa1-6 cells", "format": "in vivo", "conditions": "Hepa1-6 xenograft, male C57BL/6 mice, compound 20 alone, dose 1 (head µmol/kg/day; text 1 mg/kg/day), intraperitoneal daily, 2 weeks", "description": "Hepa1-6 cells were cultured and expanded in vitro. An appropriate amount of cells in the logarithmic growth phase was resuspended in a mixture of serum-free DMEM medium and Matrigel (1:1). Under sterile conditions, prepare a cell suspension at 2.5 × 10^6 cells/100 µL. Using a syringe, inject 100 µL of the cell suspension subcutaneously into the left forelimb axilla of male C57BL/6 mice. […]. […] During the treatment period, mouse body weight and tumor diameter were measured daily. At the end of the experiment, mice were euthanized by cervical dislocation, and tumors were removed and weighed. Tumor volume (TV) was calculated using the formula: TV = 1/2 × a × b^2, where a represents the longest diameter of the tumor and b represents the shortest diameter."}, "Hepa1-6 cells [2]": {"test_system": "Hepa1-6 cells", "experiment": "Hepa1-6 mouse hepatocellular carcinoma subcutaneous xenograft model", "format": "in vivo, C57BL/6 mice", "conditions": "Hepa1-6, oral 40 µmol/kg/d, 2 weeks", "description": "Hepa1-6 cells were cultured and expanded in vitro. An appropriate amount of cells in the logarithmic growth phase was resuspended in a mixture of serum-free DMEM medium and Matrigel (1:1). under aseptic conditions to prepare a 2.5×10^6/100 µL cell suspension. A 100 µL aliquot of this suspension was injected subcutaneously into the left forearm axilla of male C57BL/6 mice. […] Daily oral administration was performed for 2 weeks. During the treatment period, mouse body weight and tumor diameter were measured daily. At the end of the experiment, mice were euthanized by cervical dislocation, and tumors were removed for weighing. Tumor volume (TV) was calculated using the formula: TV = 1/2 × a × b^2, where a represents the longest diameter of the tumor and b represents the shortest diameter."}, "[3]": {"test_system": "Th2-related factors Il4, Il13, Il31 and inflammatory factors Tslp, Tnf, Il1", "experiment": "MC903-induced ear atopic dermatitis mouse model, Compound 1 ointment: Q-PCR of ear", "format": "in vivo", "set-up": "unit not given here", "conditions": "ear mRNA, AD mice", "description": "Except for the Normal group, all other groups underwent AD modeling: 20 µL of MC903 solution (also known as calcipotriol, purchased from Shanghai Yuanye Biotechnology Co., Ltd., used for inducing atopic models) was applied to each mouse's ears once daily for 14 consecutive days to induce the atopic dermatitis model. […] Measure ear thickness changes every 2 days using an electronic caliper before modeling and after treatment initiation."}, "[4]": {"test_system": "MC903-induced atopic dermatitis (AD)", "experiment": "MC903-induced ear atopic dermatitis mouse model, Compound 1 ointment: ear thickness and dermatitis score", "format": "in vivo, mice", "conditions": "for inhibition rate (ear thickness): final day; for Dermatitis Score: ear, score max 12", "description": "Weigh white petrolatum, light liquid paraffin, glyceryl monostearate, ethylparaben, and cetyl alcohol. Heat to 65 °C while stirring until dissolved. Slowly add the dissolved active pharmaceutical ingredient (API) while continuing to stir until uniformly mixed. Set aside. • (2) Aqueous Phase Preparation: […] Slowly add the aqueous phase to the oil phase while maintaining 65 °C, homogenize, and continue stirring for 30 min; • (4) Cooling: Stop heating, continue stirring, gradually reduce to room temperature, cool to form an ointment, and fill containers. […] Dissolve these substances in a small amount of propylene glycol, then place the resulting solution into the aforementioned pre-cooled blank ointment base. […] Skin Lesion Severity Score: […] Statistical analysis was performed on the data."}}, "note": "Where two headings read alike, the source gives them in different places.", "data": [{"compound": "CN(C)C[C@@H]1C(=O)O[C@H]2[C@H]1CC[C@@]1(C)C[C@]13CC[C@@](C)(O)[C@H]23", "note": "[compound 20]", "values": [{"measurement": "24-hour urine protein level", "setting": "lupus nephritis", "value": "0.58±0.03"}, {"measurement": "BUN", "setting": "lupus nephritis; serum", "value": "9.55±0.75"}, {"measurement": "Scr", "setting": "lupus nephritis; serum", "value": "18.55±1.08"}, {"measurement": "Kim-1", "setting": "lupus nephritis; urine", "value": "0.41±0.02"}, {"measurement": "β-MG", "setting": "lupus nephritis; urine", "value": "13.55±0.14"}, {"measurement": "Tumor Inhibition Rate (%)", "setting": "Hepa1-6 cells [1]", "value": 72.37, "unit": "%"}, {"measurement": "Tumor weight", "setting": "Hepa1-6 cells [1]", "value": "0.12 ± 0.09", "unit": "g"}, {"measurement": "Tumor Inhibition Rate (%)", "setting": "Hepa1-6 cells [2]", "value": 96.78, "unit": "%"}, {"measurement": "Tumor weight", "setting": "Hepa1-6 cells [2]", "value": "0.03 ± 0.02", "unit": "g"}]}, {"compound": "C=C1C(=O)O[C@@H]2[C@@H]3[C@]4(CC[C@@]3(C)O)C[C@]4(C)CC[C@@H]12", "note": "[compound 1]", "values": [{"measurement": "Il1", "setting": "[3]; 0.01% ointment", "value": "19.67 ± 5.26"}, {"measurement": "Il4", "setting": "[3]; 0.01% ointment", "value": "3.62 ±0.97"}, {"measurement": "Il13", "setting": "[3]; 0.01% ointment", "value": "3.30 ±0.47"}, {"measurement": "Il31", "setting": "[3]; 0.01% ointment", "value": "2.31 ±0.28"}, {"measurement": "TSLP", "setting": "[3]; 0.01% ointment", "value": "2.24 ±0.25"}, {"measurement": "Tnf", "setting": "[3]; 0.01% ointment", "value": "2.35 ±0.39"}, {"measurement": "Il1", "setting": "[3]; 0.1% ointment", "value": "9.89 ±3.44"}, {"measurement": "Il4", "setting": "[3]; 0.1% ointment", "value": "1.95 ±0.66"}, {"measurement": "Il13", "setting": "[3]; 0.1% ointment", "value": "2.85 ±0.48"}, {"measurement": "Il31", "setting": "[3]; 0.1% ointment", "value": "1.64 ±0.25"}, {"measurement": "TSLP", "setting": "[3]; 0.1% ointment", "value": "1.42 ±0.16"}, {"measurement": "Tnf", "setting": "[3]; 0.1% ointment", "value": "1.34 ±0.41"}, {"measurement": "Il1", "setting": "[3]; 1% ointment", "value": "5.69±1.12"}, {"measurement": "Il4", "setting": "[3]; 1% ointment", "value": "1.17±0.37"}, {"measurement": "Il13", "setting": "[3]; 1% ointment", "value": "1.56±0.20"}, {"measurement": "Il31", "setting": "[3]; 1% ointment", "value": "1.10±0.19"}, {"measurement": "TSLP", "setting": "[3]; 1% ointment", "value": "1.12±0.07"}, {"measurement": "Tnf", "setting": "[3]; 1% ointment", "value": "1.01±0.40"}, {"measurement": "inhibition rate (ear thickness)", "setting": "[4]; 0.01% Compound 1 ointment", "value": 71, "unit": "%"}, {"measurement": "ear thickness", "setting": "[4]; 0.01% ointment, Day 1", "value": "0.14±0.00", "unit": "mm"}, {"measurement": "ear thickness", "setting": "[4]; 0.01% ointment, Day 3", "value": "0.17±0.00", "unit": "mm"}, {"measurement": "ear thickness", "setting": "[4]; 0.01% ointment, Day 5", "value": "0.21±0.00", "unit": "mm"}, {"measurement": "ear thickness", "setting": "[4]; 0.01% ointment, Day 7", "value": "0.22±0.00", "unit": "mm"}, {"measurement": "ear thickness", "setting": "[4]; 0.01% ointment, Day 8", "value": "0.23±0.01", "unit": "mm"}, {"measurement": "ear thickness", "setting": "[4]; 0.01% ointment, Day 9", "value": "0.23±0.01", "unit": "mm"}, {"measurement": "ear thickness", "setting": "[4]; 0.01% ointment, Day 10", "value": "0.25±0.00", "unit": "mm"}, {"measurement": "ear thickness", "setting": "[4]; 0.01% ointment, Day 11", "value": "0.26±0.01", "unit": "mm"}, {"measurement": "ear thickness", "setting": "[4]; 0.01% ointment, Day 12", "value": "0.26±0.01", "unit": "mm"}, {"measurement": "ear thickness", "setting": "[4]; 0.01% ointment, Day 13", "value": "0.22±0.01", "unit": "mm"}, {"measurement": "ear thickness", "setting": "[4]; 0.01% ointment, Day 14", "value": "0.21±0.01", "unit": "mm"}, {"measurement": "inhibition rate (ear thickness)", "setting": "[4]; 0.1% Compound 1 ointment", "value": 71, "unit": "%"}, {"measurement": "ear thickness", "setting": "[4]; 0.1% ointment, Day 1", "value": "0.14±0.00", "unit": "mm"}, {"measurement": "ear thickness", "setting": "[4]; 0.1% ointment, Day 3", "value": "0.17±0.00", "unit": "mm"}, {"measurement": "ear thickness", "setting": "[4]; 0.1% ointment, Day 5", "value": "0.21±0.00", "unit": "mm"}, {"measurement": "ear thickness", "setting": "[4]; 0.1% ointment, Day 7", "value": "0.21±0.00", "unit": "mm"}, {"measurement": "ear thickness", "setting": "[4]; 0.1% ointment, Day 8", "value": "0.23±0.00", "unit": "mm"}, {"measurement": "ear thickness", "setting": "[4]; 0.1% ointment, Day 9", "value": "0.23±0.00", "unit": "mm"}, {"measurement": "ear thickness", "setting": "[4]; 0.1% ointment, Day 10", "value": "0.23±0.00", "unit": "mm"}, {"measurement": "ear thickness", "setting": "[4]; 0.1% ointment, Day 11", "value": "0.24±0.01", "unit": "mm"}, {"measurement": "ear thickness", "setting": "[4]; 0.1% ointment, Day 12", "value": "0.24±0.01", "unit": "mm"}, {"measurement": "ear thickness", "setting": "[4]; 0.1% ointment, Day 13", "value": "0.21±0.01", "unit": "mm"}, {"measurement": "ear thickness", "setting": "[4]; 0.1% ointment, Day 14", "value": "0.21±0.01", "unit": "mm"}, {"measurement": "inhibition rate (ear thickness)", "setting": "[4]; 1% Compound 1 ointment", "value": 80, "unit": "%"}, {"measurement": "ear thickness", "setting": "[4]; 1% ointment, Day 1", "value": "0.15±0.00", "unit": "mm"}, {"measurement": "ear thickness", "setting": "[4]; 1% ointment, Day 3", "value": "0.17±0.00", "unit": "mm"}, {"measurement": "ear thickness", "setting": "[4]; 1% ointment, Day 5", "value": "0.21±0.00", "unit": "mm"}, {"measurement": "ear thickness", "setting": "[4]; 1% ointment, Day 7", "value": "0.22±0.01", "unit": "mm"}, {"measurement": "ear thickness", "setting": "[4]; 1% ointment, Day 8", "value": "0.22±0.01", "unit": "mm"}, {"measurement": "ear thickness", "setting": "[4]; 1% ointment, Day 9", "value": "0.23±0.01", "unit": "mm"}, {"measurement": "ear thickness", "setting": "[4]; 1% ointment, Day 10", "value": "0.23±0.01", "unit": "mm"}, {"measurement": "ear thickness", "setting": "[4]; 1% ointment, Day 11", "value": "0.24±0.00", "unit": "mm"}, {"measurement": "ear thickness", "setting": "[4]; 1% ointment, Day 12", "value": "0.23±0.01", "unit": "mm"}, {"measurement": "ear thickness", "setting": "[4]; 1% ointment, Day 13", "value": "0.20±0.00", "unit": "mm"}, {"measurement": "ear thickness", "setting": "[4]; 1% ointment, Day 14", "value": "0.19±0.00", "unit": "mm"}, {"measurement": "Dermatitis Score", "setting": "[4]; 0.01% ointment for 7 days", "value": "3.50±0.22"}, {"measurement": "Dermatitis Score", "setting": "[4]; 0.1% ointment for 7 days", "value": "2.67±0.21"}, {"measurement": "Dermatitis Score", "setting": "[4]; 1% ointment for 7 days", "value": "2.33±0.33"}]}]}
